Consider twelve compounds from ChEMBL document CHEMBL1201862, “PubChem BioAssay data set” (2004).

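1) Cells in 96-well plates. 2) Compound, 48 h, 5 concentrations. 3) Linear interpolation between surrounding doses. 4) Unreached endpoint = highest concentration. GI50 is the concentration that inhibits growth by half.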 Active and inactive are the calls of the source. No stated cut-off is given here; in the data, active = GI50 up to about 1.1 µM and inactive = higher.

Among the test systems are ACHN; CAKI-1; HOP-62; HT-29; Hs-578T; K562; MDA-N; NCI-H23; PC-3; RPMI-8226; SF-268; SK-MEL-28; SK-MEL-2; SK-MEL-5; SNB-75; SR; T47D; A498; SF-539.
What all share (assay): growth of human tumour cells (NCI), 48 h

For the compound `CN1CCC(O)(C(C)(C)C)CC1`, the GI50 in the assay with ACHN, with CAKI-1, in the assay on HOP-62, in the assay on HT-29, in the assay on Hs-578T and with K562 was > 100 µM (inactive) in each case. Further, the GI50 in the assay on MDA-N, with NCI-H23, with PC-3, in the assay on RPMI-8226, in the assay on SF-268 and in the assay on SK-MEL-28 was > 100 µM (inactive) in each case. The GI50 in the assay on SK-MEL-2, with SK-MEL-5, in the assay on SNB-75, with SR and in the assay on T47D was > 100 µM (inactive) in each case.
Consider `C[C@]12CC/C(=N\OCCN3CCCCC3)C=C1CCC1C2CC[C@@]2(C)C1CC[C@]2(C)O` (stereo not given in full), for which the GI50 in the assay on A498 is 3.14 µM (inactive); with ACHN it was 11.4 µM (inactive); in the assay on CAKI-1 it was 6.75 µM (inactive); with HOP-62, 15.2 µM (inactive); in the assay on HT-29, 2.28 µM (inactive); with Hs-578T, 8.61 µM (inactive). The GI50 in the assay with K562 was 5.26 µM (inactive); with MDA-N, 3.32 µM (inactive); with NCI-H23, 13.4 µM (inactive); with PC-3, 10.8 µM (inactive); in the assay with RPMI-8226, 12.7 µM (inactive); in the assay on SF-268 it was 13.4 µM (inactive). Moreover, the GI50 is 7.35 µM (inactive) in the assay on SF-539; 11.2 µM (inactive) in the assay on SK-MEL-28; 13.1 µM (inactive) in the assay on SK-MEL-2; 16.6 µM (inactive) with SK-MEL-5; 7.35 µM (inactive) in the assay with SNB-75; 13.1 µM (inactive) in the assay on T47D.
For the compound `CN(C)CCCN1c2ccc3ccccc3c2Sc2cccc(Cl)c21`, the GI50 with A498 was 9.82 µM (inactive); in the assay with ACHN, 3.38 µM (inactive); in the assay with CAKI-1, 5.33 µM (inactive); in the assay with HOP-62, 2.85 µM (inactive); in the assay with HT-29, 2.04 µM (inactive); with Hs-578T, 0.665 µM (active). The GI50 is 1.73 µM (inactive) with K562; 2.38 µM (inactive) with MDA-N; 10.6 µM (inactive) with NCI-H23; 3.01 µM (inactive) with PC-3; 1.78 µM (inactive) in the assay on RPMI-8226; 5.69 µM (inactive) in the assay with SF-268. The GI50 with SF-539 was 4.32 µM (inactive); in the assay with SK-MEL-28, 2.18 µM (inactive); in the assay on SK-MEL-2 it was 1.99 µM (inactive); with SK-MEL-5, 3.83 µM (inactive); in the assay with SNB-75, 3.6 µM (inactive); in the assay with T47D it was 2.46 µM (inactive).
Regarding `COc1cc(-c2cc(=O)c3c(OC)c(OC)c(OC)cc3o2)c(OC)c(OC)c1OC`, the GI50 is > 75 µM (inactive) in the assay on ACHN; > 75 µM (inactive) in the assay with CAKI-1; > 75 µM (inactive) in the assay on HOP-62; > 75 µM (inactive) with HT-29; > 75 µM (inactive) in the assay with Hs-578T; 39.1 µM (inactive) in the assay with K562. Moreover, the GI50 with MDA-N is > 75 µM (inactive); in the assay on NCI-H23 it was > 75 µM (inactive); in the assay with PC-3, 23.6 µM (inactive); with RPMI-8226 it was 25 µM (inactive); in the assay on SF-268, > 75 µM (inactive); in the assay on SF-539, > 75 µM (inactive). Also, the GI50 with SK-MEL-28 is > 75 µM (inactive); in the assay on SK-MEL-2, 45.6 µM (inactive); in the assay with SK-MEL-5, 53.7 µM (inactive); in the assay with SNB-75, > 75 µM (inactive); in the assay on SR, 63.1 µM (inactive); in the assay with T47D it was 49.3 µM (inactive).
Regarding `NC(Cn1ccc(=O)c(O)c1)C(=O)O` (stereo not given) [MIMOSINE], the GI50 with A498, in the assay with ACHN, in the assay on CAKI-1, with HOP-62, in the assay on HT-29 and in the assay with Hs-578T was > 100 µM (inactive) in each case. In addition, the GI50 in the assay with MDA-N, with NCI-H23, with PC-3, with RPMI-8226, in the assay with SF-268 and in the assay with SF-539 was > 100 µM (inactive) each time. Further, the GI50 with SK-MEL-28 was > 100 µM (inactive); in the assay on SK-MEL-2, > 100 µM (inactive); in the assay with SK-MEL-5, > 100 µM (inactive); in the assay on SR it was 49.4 µM (inactive); in the assay on T47D, > 100 µM (inactive).
In the case of `COc1ccc2[nH]c3c(c2c1)CCn1c-3nc2ccccc2c1=O`, the GI50 with ACHN, in the assay with HOP-62, in the assay with Hs-578T, with K562, in the assay on MDA-N and in the assay on PC-3 was > 25 µM (inactive) throughout. For the same compound, the GI50 in the assay with RPMI-8226, with SF-268, in the assay on SF-539, in the assay with SK-MEL-28, in the assay on SK-MEL-5 and with SNB-75 was > 25 µM (inactive) throughout. In addition, the GI50 in the assay with SR and in the assay with T47D was > 25 µM (inactive) throughout.
As to `CC(=O)Nc1ccc(Nc2cc(O)nc(O)n2)cc1`, the GI50 in the assay with A498, in the assay on ACHN, in the assay with HOP-62, in the assay with HT-29, in the assay on Hs-578T and in the assay with K562 was > 100 µM (inactive) in each case. Further, the GI50 in the assay on MDA-N, in the assay on PC-3, with RPMI-8226, with SF-268, in the assay on SF-539 and in the assay with SK-MEL-28 was > 100 µM (inactive) each time. Besides, the GI50 is > 100 µM (inactive) with SK-MEL-5, > 100 µM (inactive) in the assay on SNB-75, > 100 µM (inactive) in the assay on SR and 14.1 µM (inactive) in the assay on T47D.
Regarding `O=C(O)C/C(=C\c1ccccc1)C(=O)O`, the GI50 in the assay with A498, in the assay with ACHN, with CAKI-1, with HOP-62, in the assay on HT-29 and with Hs-578T was > 100 µM (inactive) each time. Moreover, the GI50 in the assay with K562 was 31.7 µM (inactive); with MDA-N, > 100 µM (inactive); with NCI-H23, > 100 µM (inactive); in the assay on PC-3, > 100 µM (inactive); in the assay on RPMI-8226 it was > 100 µM (inactive); in the assay on SF-268 it was > 100 µM (inactive). Also, the GI50 in the assay with SF-539, with SK-MEL-28, in the assay with SK-MEL-2, in the assay on SK-MEL-5, in the assay with SNB-75 and in the assay with T47D was > 100 µM (inactive) in each case.
With `COc1ccc([C@H]2C=C(c3cc(F)c(Cl)cc3Cl)N=c3s/c(=C\c4ccc(-c5ccc(Cl)cc5Cl)o4)c(=O)n32)cc1`, the GI50 in the assay with A498 is 2.48 µM (inactive); in the assay with ACHN, > 100 µM (inactive); with CAKI-1, 80.5 µM (inactive); in the assay on HOP-62 it was 18.8 µM (inactive); in the assay on HT-29, 37.2 µM (inactive); in the assay on Hs-578T it was 34.8 µM (inactive). The GI50 with K562 was 38.8 µM (inactive); in the assay with MDA-N, 28.1 µM (inactive); in the assay on NCI-H23 it was 38.9 µM (inactive); in the assay with PC-3, 99.3 µM (inactive); in the assay with RPMI-8226, 32.5 µM (inactive); in the assay with SF-268, 35.6 µM (inactive). Further, the GI50 in the assay with SF-539 is 34.6 µM (inactive); with SK-MEL-28 it was > 100 µM (inactive); in the assay with SK-MEL-2, 20.1 µM (inactive); in the assay on SK-MEL-5, 36.6 µM (inactive); in the assay on SNB-75, 38.4 µM (inactive); in the assay with T47D it was 19.6 µM (inactive).
Regarding `COc1ccc(NC(=O)CC(=O)NN)cc1`, the GI50 in the assay on ACHN, with CAKI-1, with HOP-62, with HT-29, with Hs-578T and in the assay with K562 was > 100 µM (inactive) in each case. The GI50 in the assay with MDA-N, in the assay with NCI-H23, with PC-3, in the assay on RPMI-8226, with SF-268 and in the assay with SF-539 was > 100 µM (inactive) in each case. The GI50 with SK-MEL-2, in the assay with SK-MEL-5, in the assay with SNB-75, in the assay on SR and with T47D was > 100 µM (inactive) in each case.
Take `Nc1nc(Cc2ccccc2)nc(Cc2ccccc2)c1-c1ccccc1`: the GI50 with A498 is 26 µM (inactive); with ACHN, 29 µM (inactive); in the assay on CAKI-1, 39.5 µM (inactive); in the assay with HOP-62 it was 20.7 µM (inactive); in the assay on HT-29, 21.9 µM (inactive); with Hs-578T, 85.7 µM (inactive). For the same compound, the GI50 is 18 µM (inactive) in the assay with K562; 16.1 µM (inactive) in the assay on MDA-N; 17.7 µM (inactive) in the assay with NCI-H23; 23.1 µM (inactive) in the assay with PC-3; 31 µM (inactive) with SF-268; 48.1 µM (inactive) in the assay on SK-MEL-28. Besides, the GI50 is 13.6 µM (inactive) with SK-MEL-2, 15.5 µM (inactive) in the assay with SK-MEL-5, 20.8 µM (inactive) in the assay on SR and 36.8 µM (inactive) in the assay with T47D.
As for `CC[C@]12C=CCN3CC[C@@]4(c5cc(N=O)c(OC)cc5N(C)[C@H]4[C@@](O)(C(=O)OC)[C@@H]1OC(C)=O)[C@@H]32`, the GI50 in the assay with A498 is > 100 µM (inactive); with ACHN, 61.7 µM (inactive); with CAKI-1, 41 µM (inactive); in the assay on HOP-62 it was 61 µM (inactive); in the assay on HT-29, 48.5 µM (inactive); with Hs-578T, 73.5 µM (inactive). The GI50 is 46.7 µM (inactive) in the assay on K562; 20.1 µM (inactive) with MDA-N; > 100 µM (inactive) with NCI-H23; 40.8 µM (inactive) with PC-3; > 100 µM (inactive) with SF-268; 27.6 µM (inactive) with SF-539. Also, the GI50 in the assay with SK-MEL-28 was > 100 µM (inactive); in the assay with SK-MEL-2 it was 18 µM (inactive); in the assay on SK-MEL-5 it was 37.9 µM (inactive); in the assay on SNB-75, 57.7 µM (inactive); with SR, 47.8 µM (inactive); with T47D, 35 µM (inactive).
